This is an account of results in patent publication US20200399329A1, “ANTIMICROBIAL PEPTIDES” (priority 2015, published 2020).

Values after ≈ are worked out from the molar mass of the structure shown. Where a SMILES comes first, the peptide text is derived from it. Bridges are numbered along the chain shown (N, C = ends). Where no end group is shown, it is not given here.

One data set has as its target Proteinase-K (Parengyodontium album, UniProt P06873). The data set is described as follows: Proteinase-K (ProtK) proteolysis stability, Coommassie Blue stained gel. The data set is classed as in vitro ADME. Particulars: 10 μg protein, 2 hours at 37° C. The method, then: Proteinase-K (ProtK) was used to assess the stability of OMN6 versus native Cecropin A (CecA) and Bovine Serum Albumin (BSA) (See FIG. 1 A). 10 μg of each protein were incubated with increasing concentrations of between 5-20 ng of ProtK as specified, for 2 hours at 37° C. Samples were boiled at 100° C. for five minutes and separated on 15% acrylamide gel. The gel was then stained with Coommassie Blue and excess dye was removed over-night. […] In lane 2, the CecA band was weaker than the untreated sample band in lane 1. In lane 8, fragments of degraded BSA were detected, evidence of partial degradation.
The same experimental system as described above was used to assess the stability of OMN2, OMN7 and OMN11 against proteolytic degradation by ProtK (see FIG. 1B).

A further data set relates to E. coli strains. In kind it is cell-based. The method, then:
(§1) In order to determine the MIC values of the peptides, growth and inhibition of various bacteria were monitored after treatment with the peptides of the invention (Table B). E. coli, K. pneumoniae, P. aeruginosa and Salmonella bacteria were cultured at 37° C. and at 5×10^6 CFU/ml in a standard 96-well-plate, in Mueller Hinton broth. […] The growth of the bacteria was continuously monitored via spectrophotometry at a wave-length of 625 nm. As bacterial growth progresses, Optical density at 625 nm (OD625 nm) values increase, and where the bacterial growth is inhibited, OD625 nm values remain constant. The experimental system and parameters described herein were used to determine the MIC values of OMN3, OMN5, OMN8 and OMN9 on various bacteria strains (Table B). Using the standard MHB MIC testing for antibiotic activity

Another data set has as its system P. aeruginosa BAA-2795. In kind it is cell-based, Pseudomonas aeruginosa. As to the method: as §1

Proteinase-K, sequence (P06873 106-384, species assumed): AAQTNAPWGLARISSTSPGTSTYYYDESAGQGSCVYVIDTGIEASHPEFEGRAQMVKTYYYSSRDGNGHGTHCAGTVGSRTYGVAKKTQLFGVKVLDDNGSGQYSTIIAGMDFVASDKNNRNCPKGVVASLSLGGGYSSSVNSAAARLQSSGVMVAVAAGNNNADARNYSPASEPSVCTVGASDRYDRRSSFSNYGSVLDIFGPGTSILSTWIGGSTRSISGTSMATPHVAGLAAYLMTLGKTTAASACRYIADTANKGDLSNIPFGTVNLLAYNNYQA

For the compound “KWKLFKKIEKVGQNIRDGIIKAGPAVAVVGQATQIAK-NH2 (C-terminus assumed) [CecA, reference compound]”, the “Degradation by ProtK (gel band)” value on Proteinase-K (5 ng ProtK) is “partially degrade”; on Proteinase-K (20 ng ProtK), “completely degrade”.
The like results for “Bovine Serum Albumin [BSA, reference compound]” were, in that order, “partially degrade” and “completely degrade”.
What is called MIC is the lowest concentration found to suppress growth. Read a high MIC as a need for much substance. Turning to `CC[C@H](C)[C@@H]1NC(=O)[C@H](C)NC(=O)[C@H](C)NC(=O)[C@H](C)NC(=O)[C@H](CCC(N)=O)NC(=O)CNC(=O)[C@H](C(C)C)NC(=O)[C@H]([C@@H](C)O)NC(=O)[C@H](C)NC(=O)[C@H](C(C)C)NC(=O)[C@H](C)NC(=O)[C@@H]2CCCN2C(=O)[C@H](C)NC(=O)[C@H](C)NC(=O)[C@H](CO)NC(=O)[C@H]([C@@H](C)O)NC(=O)[C@H](C(C)C)NC(=O)[C@H](C)NC(=O)[C@H](CC(=O)O)NC(=O)[C@H](CCCNC(=N)N)NC(=O)[C@H](C(C)C)NC(=O)[C@H](CCCNC(=N)N)NC(=O)[C@H](CCC(N)=O)NC(=O)CNC(=O)[C@H](C)NC(=O)[C@H](CCCNC(=N)N)NC(=O)[C@H](CCC(=O)O)NC(=O)[C@H](CC(C)C)NC(=O)[C@H](CCC(=O)O)NC(=O)[C@H](CCCCN)NC(=O)[C@H](Cc2ccccc2)NC(=O)[C@@H]2CCCN2C(=O)[C@H](CC(N)=O)NC(=O)[C@H](Cc2c[nH]c3ccccc23)NC(=O)[C@@H](NC(=O)[C@@H](N)CCSC)CSSC[C@@H](C(=O)O)NC(=O)[C@H](CCCNC(=N)N)NC(=O)[C@H](C)NC1=O` [OMN3] (H-MCWNPFKELERAGQRVRDAVTSAAPAVATVGQAAAIARC-OH; disulfide 2-39; N-terminus and C-terminus assumed), the “MIC for E. coli strains” value against E. coli strains is reported as “above 256 μg/mL”. The compound also yielded an MIC against P. aeruginosa BAA-2795 of 256 µg/mL (≈ 62.2 µM).
The like results for `CC[C@H](C)[C@@H]1NC(=O)[C@H](C)NC(=O)[C@H](CC(=O)O)NC(=O)[C@H](CCCNC(=N)N)NC(=O)[C@H](C(C)C)NC(=O)[C@H](CCCNC(=N)N)NC(=O)[C@H](CCC(N)=O)NC(=O)CNC(=O)[C@H](C)NC(=O)[C@H](CCCNC(=N)N)NC(=O)[C@H](CCC(=O)O)NC(=O)[C@H](CC(C)C)NC(=O)[C@H](CCC(=O)O)NC(=O)[C@H](CCCCN)NC(=O)[C@H](Cc2ccccc2)NC(=O)[C@@H]2CCCN2C(=O)[C@H](CC(N)=O)NC(=O)[C@H](Cc2c[nH]c3ccccc23)NC(=O)[C@@H](NC(=O)[C@@H](N)CCSC)CSSC[C@@H](C(=O)O)NC(=O)[C@H](CCCCN)NC(=O)[C@H](C)NC(=O)[C@H](CC(C)C)NC(=O)[C@H](C)NC(=O)[C@H]([C@@H](C)O)NC(=O)[C@H](C)NC(=O)[C@H](CCC(N)=O)NC(=O)[C@H](C)NC(=O)[C@H](C(C)C)NC(=O)[C@H]([C@@H](C)O)NC(=O)[C@H](C)NC(=O)[C@H](C(C)C)NC(=O)[C@H](C)NC(=O)[C@@H]2CCCN2C(=O)CNC(=O)[C@H](C)NC(=O)[C@H](CO)NC(=O)[C@H]([C@@H](C)CC)NC1=O` [OMN5] (H-MCWNPFKELERAGQRVRDAIISAGPAVATVAQATALAKC-OH; disulfide 2-39; N-terminus and C-terminus assumed) were, in that order, “above 256 μg/mL” and 256 µg/mL (≈ 61.8 µM).
